Results from patent publication US20090093517A1, “BIS1,2,3,4-TETRAHYDROISOQUINOLINE DERIVATIVES AND THEIR USES AS PHARMACEUTICALS” (UNIVERSITE DE LIEGE, priority 2006, published 2009).
Structures can show the parent of a compound that is named as a salt.

Tested on: apamin-sensitive sites of the SK channels
Test: Competition binding between 125I-apamin and bis-tetrahydroisoquinoline derivatives on rat cortical synaptosomes
Conditions: for % of 125I-apamin displaced at 10 μM: 10 μM compound, ±10 pM 125I-apamin, rat cortical synaptosomes, 1 h at 0° C.; for Ki: separated stereoisomers, rat cortical apamin sensitive sites, 125I-apamin; for Ki / potential to interact with apamin-sensitive sites compared with NML: comparison in words with N-Methyl-Laudanosine
Description: These experiments are used to evaluate the potency of the bis-tetrahydroisoquinoline derivatives to interact with the apamin-sensitive sites of the SK channels, the selected target for which a blockade is expected to be useful in the treatment of Alzheimer's disease, Parkinson's disease, schizophrenia, cognitive dysfunction, or depression. Two reference compounds are also tested for comparison
Rats (male Wistar, ±250 g) were killed by decapitation and the brains were quickly removed and kept on ice during dissection. Crude cortex was dispersed in 0.32 M sucrose by using a Pottero homogenizer. After a first centrifugation at 1500×g for 10 min, the supernatant was centrifuged at 25000×g for 10 min. The resulting pellet was dispersed in 5 mL 0.32 M sucrose to be aliquoted. Protein concentration was determined by the method of Hartree with bovine serum albumin as a standard.^36
The buffer consisted of a 10 mM Tris-HCl (pH 7.5) solution containing 5.4 mM KCl and 0.1% bovine serum albumin. The radioligand was ^125I-apamin (Perkin-Elmer, Specific activity 81.4 TBq mmol^−1). Glass fibre filters (Whatman GF/C) used in these experiments were coated for 1 h in 0.5% polyethylenimine and then washed with 2.5 mL of the ice-cold buffer just before use. Binding experiments were always terminated as follows. Aliquots were filtered under reduced pressure through Whatman filters. Filters were rapidly washed twice with 2.5 mL of buffer. The radioactivity remaining on the filter was evaluated with a Packard Tri-Carb 1600TR liquid scintillation analyser with an efficacy of 69%. ^125I-apamin binding to the filters was also estimated in the absence of synaptosomes. This binding was also substracted from the total binding. Curve fitting was carried out using GraphPad Prism.
Saturation Binding Experiments—Synaptosomes (0.2 mg of protein/mL) were incubated with increasing concentrations of ^125I-apamin (25 μL) with 975 μL of incubation buffer for 1 h at 0° C. Samples were then filtered on Whatman GF/C filter and the radioactivity was measured as described above. Non specific binding was determined in parallel experiments in the presence of an excess of unlabeled apamin (0.1 μM) and subtracted from the total binding to obtain the specific binding.
Competition Experiments between ^125I-apamin and Bis-tetrahydroisoquinoline derivatives—Synaptosomes (0.2 mg of protein/mL) were incubated for 1 h at 0° C. with ±10 pM of ^125I-apamin (25 μL) and nine concentrations of bis-tetrahydroisoquinoline derivatives (10^−4 to 10^−7 M). Non specific binding was determined in the presence of an excess of unlabeled apamin (0.1 μM). Samples were then filtered on Whatman filter and the radioactivity was measured as described above.

Compound: COc1cc2c(c(OC)c1OC)C(CCCC1c3c(cc(OC)c(OC)c3OC)CCN1C)N(C)CC2.Cl (centres unmarked) [Compound 4g, 1,3-bis[1-(6,7,8-trimethoxy-2-methyl-1,2,3,4-tetrahydroisoquinolyl)]-propane hydrochloride]
- % of 125I-apamin displaced at 10 μM: 70%

Compound: m-bis[1-(6,7,8-trimethoxy-2-methyl-1,2,3,4-tetrahydroisoquinolyl)]-xylene hydrochloride [Compound 4q]
- % of 125I-apamin displaced at 10 μM: 60%

Compound: COc1cc2c(cc1OC)[C@@H](Cc1ccc(C[C@H]3c4cc(OC)c(OC)cc4CCN3C)cc1)N(C)CC2 [Compound 4n MESO]
- Ki: 0.566 ± 0.026 µM

Compound: COc1cc2c(cc1OC)C(CCCC1c3cc(OC)c(OC)cc3CCN1C)N(C)CC2 (centres unmarked) [Compound 4d E1, 1,3-bis[1-(6,7-dimethoxy-2-methyl-1,2,3,4-tetrahydroisoquinolyl)]-propane hydrochloride]
- Ki / potential to interact with apamin-sensitive sites compared with NML: Ki superior to NML
- Ki compared with dequalinium (comparison in words with dequalinium): Ki quite similar to dequalinium
- Ki (listed as 4d E1, hydrochloride): 0.293 ± 0.022 µM

Compound: CN1CCc2ccccc2C1CCCC1c2ccccc2CCN1C.Cl (centres unmarked) [Compound 4a, 1,3-bis[1-(2-methyl-1,2,3,4-tetrahydrolisoquinolyl)]-propane hydrochloride]
- % of 125I-apamin displaced at 10 μM: 13%

Compound: COc1cc2c(c(OC)c1OC)[C@@H](CCC[C@H]1c3c(cc(OC)c(OC)c3OC)CCN1C)N(C)CC2 [Compound 4g MESO, 1,3-bis[1-(6,7,8-trimethoxy-2-methyl-1,2,3,4-tetrahydroisoquinolyl)]-propane hydrochloride]
- Ki: 1.67 ± 0.077 µM

Compound: COc1cc2c(cc1OC)C(CCCCCC1c3cc(OC)c(OC)cc3CCN1C)N(C)CC2.Cl (centres unmarked) [Compound 4f E1, 1,5-bis[1-(6,7-dimethoxy-2-methyl-1,2,3,4-tetrahydroisoquinolyl)]-pentane hydrochloride]
- Ki / potential to interact with apamin-sensitive sites compared with NML: Ki superior to NML
- Ki (listed as 4f E1, hydrochloride): 0.592 ± 0.014 µM

Compound: COc1ccc(C[C@H]2c3cc(OC)c(OC)cc3CC[N+]2(C)C)cc1OC [NML, N-methyl-laudanosine, reference compound]
- % of 125I-apamin displaced at 10 μM: 54%

Compound: o-bis[1-(6,7-dimethoxy-2-methyl-1,2,3,4-tetrahydroisoquinolyl)]-xylene hydrochloride [Compound 4m]
- % of 125I-apamin displaced at 10 μM: 62%

Compound: COc1cc2c(cc1OC)C(CCCCCC1c3cc(OC)c(OC)cc3CCN1C)N(C)CC2 (centres unmarked) [Compound 4f E2, 1,5-bis[1-(6,7-dimethoxy-2-methyl-1,2,3,4-tetrahydroisoquinolyl)]-pentane hydrochloride]
- Ki (listed as 4f E2, hydrochloride): 1.3 ± 0.039 µM

Compound: o-bis[1-(6,7,8-trimethoxy-2-methyl-1,2,3,4-tetrahydroisoquinolyl)]-xylene hydrochloride [Compound 4p]
- % of 125I-apamin displaced at 10 μM: 28%

Compound: COc1cc2c(c(OC)c1OC)C(CCCC1c3c(cc(OC)c(OC)c3OC)CCN1C)N(C)CC2 (centres unmarked) [Compound 4g E1, 1,3-bis[1-(6,7,8-trimethoxy-2-methyl-1,2,3,4-tetrahydroisoquinolyl)]-propane hydrochloride]
- Ki (listed as 4g E1, hydrochloride): 1.74 ± 0.195 µM

Compound: m-bis[1-(6,7-dimethoxy-2-methyl-1,2,3,4-tetrahydroisoquinolyl)]-xylene hydrochloride [Compound 4n]
- % of 125I-apamin displaced at 10 μM: 74%

Compound: COc1cc2c(cc1OC)C(Cc1ccc(CC3c4cc(OC)c(OC)cc4CCN3C)cc1)N(C)CC2 (centres unmarked) [Compound 4o, p-bis[1-(6,7-dimethoxy-2-methyl-1,2,3,4-tetrahydroisoquinolyl)]-xylene]
- % of 125I-apamin displaced at 10 μM: 90%

Compound: COc1cc2c(c(OC)c1OC)C(CCCC1c3c(cc(OC)c(OC)c3OC)CCN1C)N(C)CC2 (centres unmarked) [Compound 4g E2, 1,3-bis[1-(6,7,8-trimethoxy-2-methyl-1,2,3,4-tetrahydroisoquinolyl)]-propane hydrochloride]
- Ki (listed as 4g E2, hydrochloride): 1.1 ± 0.103 µM

Compound: COc1cc2c(cc1OC)[C@@H](CCC[C@H]1c3cc(OC)c(OC)cc3CCN1C)N(C)CC2 [Compound 4d MESO, 1,3-bis[1-(6,7-dimethoxy-2-methyl-1,2,3,4-tetrahydroisoquinolyl)]-propane hydrochloride]
- Ki: 1.42 ± 0.116 µM

Compound: COc1cc2c(c(OC)c1OC)C(CCCCC1c3c(cc(OC)c(OC)c3OC)CCN1C)N(C)CC2 (centres unmarked) [Compound 4h E1, 1,4-bis[1-(6,7,8-trimethoxy-2-methyl-1,2,3,4-tetrahydroisoquinolyl)]-butane hydrochloride]
- Ki (listed as 4h E1, hydrochloride): 2.21 ± 0.156 µM

Compound: COc1cc2c(c(OC)c1OC)C(CCCCC1c3c(cc(OC)c(OC)c3OC)CCN1C)N(C)CC2 (centres unmarked) [Compound 4h E2, 1,4-bis[1-(6,7,8-trimethoxy-2-methyl-1,2,3,4-tetrahydroisoquinolyl)]-butane hydrochloride]
- Ki (listed as 4h E2, hydrochloride): 0.746 ± 0.136 µM

Compound: COc1cc2c(cc1OC)C(CCCCC1c3cc(OC)c(OC)cc3CCN1C)N(C)CC2.Cl (centres unmarked) [Compound 4e E1, 1,4-bis[1-(6,7-dimethoxy-2-methyl-1,2,3,4-tetrahydroisoquinolyl)]-butane hydrochloride]
- Ki / potential to interact with apamin-sensitive sites compared with NML: Ki superior to NML
- Ki (listed as 4e E1, hydrochloride): 0.588 ± 0.072 µM

Compound: Cc1cc(N)c2ccccc2[n+]1CCCCCCCCCC[n+]1c(C)cc(N)c2ccccc21 [DQ+, Dequalinium, reference compound]
- Ki: 0.221 ± 0.011 µM

Compound: m-Bis[1-(2-methyl-1,2,3,4-tetrahydroisoquinolyl)]-xylene hydrochloride [Compound 4k]
- % of 125I-apamin displaced at 10 μM: 29%

Compound: COc1cc2c(cc1OC)C(Cc1cccc(CC3c4cc(OC)c(OC)cc4CCN3C)c1)N(C)CC2 (centres unmarked) [Compound 4m E2]
- Ki (listed as 4m E2): 1.02 ± 0.027 µM

Compound: COc1cc2c(cc1OC)C(CCCCC1c3cc(OC)c(OC)cc3CCN1C)N(C)CC2 (centres unmarked) [Compound 4e E2, 1,4-bis[1-(6,7-dimethoxy-2-methyl-1,2,3,4-tetrahydroisoquinolyl)]-butane hydrochloride]
- Ki (listed as 4e E2, hydrochloride): 1.2 ± 0.114 µM

Compound: COc1cc2c(c(OC)c1OC)C(CCCCC1c3c(cc(OC)c(OC)c3OC)CCN1C)N(C)CC2.Cl (stereo not drawn) [Compound 4h MESO, 1,4-bis[1-(6,7,8-trimethoxy-2-methyl-1,2,3,4-tetrahydroisoquinolyl)]-butane hydrochloride]
- Ki / potential to interact with apamin-sensitive sites compared with NML: Ki superior to NML
- Ki (listed as 4h MESO, hydrochloride): 0.424 ± 0.033 µM

Compound: COc1cc2c(cc1OC)C(CCCCCC1c3cc(OC)c(OC)cc3CCN1C)N(C)CC2.Cl (centres unmarked) [Compound 4f, 1,5-bis[1-(6,7-dimethoxy-2-methyl-1,2,3,4-tetrahydroisoquinolyl)]-pentane hydrochloride]
- % of 125I-apamin displaced at 10 μM: 78%

Compound: COc1cc2c(c(OC)c1OC)C(CCCCC1c3c(cc(OC)c(OC)c3OC)CCN1C)N(C)CC2.Cl (centres unmarked) [Compound 4h, 1,4-bis[1-(6,7,8-trimethoxy-2-methyl-1,2,3,4-tetrahydroisoquinolyl)]-butane hydrochloride]
- % of 125I-apamin displaced at 10 μM: 86%

Compound: COc1cc2c(cc1OC)C(Cc1cccc(CC3c4cc(OC)c(OC)cc4CCN3C)c1)N(C)CC2 (centres unmarked) [Compound 4m E1]
- Ki (listed as 4m E1): 1.28 ± 0.055 µM

Compound: COc1cc2c(cc1OC)C(CCCC1c3cc(OC)c(OC)cc3CCN1C)N(C)CC2.Cl (centres unmarked) [Compound 4d, 1,3-bis[1-(6,7-dimethoxy-2-methyl-1,2,3,4-tetrahydroisoquinolyl)]-propane hydrochloride]
- % of 125I-apamin displaced at 10 μM: 82%

Compound: p-bis[1-(6,7,8-trimethoxy-2-methyl-1,2,3,4-tetrahydroisoquinolyl)]-xylene [Compound 4r]
- % of 125I-apamin displaced at 10 μM: 51%

Compound: p-bis[1-(2-methyl-1,2,3,4-tetrahydroisoquinolyl)]-xylene hydrochloride [Compound 4l]
- % of 125I-apamin displaced at 10 μM: 27%
